# Measured values from BindingDB's records for patent US20250313563 (The Broad Institute, 2025).
# pIC50: −log10 of the molar value. Values joined by “and” are separate entries in the source; they are usually repeats but may differ in a detail not shown here. Identical values can stand only once.
# Experiments:
# [1] = target: Glycogen synthase kinase-3 alpha (Homo sapiens, UniProt P49840); experiment: TR-FRET Assay
# Method in brief: (§1)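 Kinase activity, measured after a 30-minute compound preincubation, was stopped with EDTA and quantified by TR-FRET using a Tb-labelled pSer641 antibody paired with streptavidin-d2.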
# [2] = target: Glycogen synthase kinase-3 beta (Homo sapiens, UniProt P49841); experiment: TR-FRET Assay
# Glycogen synthase kinase-3 beta, sequence (P49841 whole entry): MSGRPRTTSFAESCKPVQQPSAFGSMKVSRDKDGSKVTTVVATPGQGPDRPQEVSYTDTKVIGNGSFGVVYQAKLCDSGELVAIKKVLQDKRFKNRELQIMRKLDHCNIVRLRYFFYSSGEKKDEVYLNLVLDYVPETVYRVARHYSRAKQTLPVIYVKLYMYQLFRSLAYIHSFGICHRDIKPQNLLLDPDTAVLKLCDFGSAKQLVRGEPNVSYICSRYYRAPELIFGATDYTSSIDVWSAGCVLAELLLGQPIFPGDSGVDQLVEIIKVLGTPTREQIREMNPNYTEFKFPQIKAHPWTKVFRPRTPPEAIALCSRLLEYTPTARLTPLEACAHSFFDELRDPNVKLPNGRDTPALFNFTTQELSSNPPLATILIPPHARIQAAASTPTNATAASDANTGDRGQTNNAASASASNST
# Method in brief: as §1
# Glycogen synthase kinase-3 alpha, sequence (P49840 whole entry): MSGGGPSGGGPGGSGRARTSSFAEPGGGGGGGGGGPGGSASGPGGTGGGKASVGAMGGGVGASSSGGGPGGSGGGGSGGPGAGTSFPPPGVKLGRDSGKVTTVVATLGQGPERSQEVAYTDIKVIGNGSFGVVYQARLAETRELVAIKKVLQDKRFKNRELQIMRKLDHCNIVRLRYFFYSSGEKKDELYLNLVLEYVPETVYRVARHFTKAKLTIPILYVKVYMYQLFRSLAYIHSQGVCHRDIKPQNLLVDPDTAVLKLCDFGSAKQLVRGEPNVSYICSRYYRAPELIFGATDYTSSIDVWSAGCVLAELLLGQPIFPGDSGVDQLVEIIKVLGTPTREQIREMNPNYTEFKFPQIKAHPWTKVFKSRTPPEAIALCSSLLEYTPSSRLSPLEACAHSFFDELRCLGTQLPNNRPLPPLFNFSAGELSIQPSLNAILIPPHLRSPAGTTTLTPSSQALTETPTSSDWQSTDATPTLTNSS
SMILES,pIC50 [1],pIC50 [2]
"COc1cccc(S(=O)(=O)N2CC3(C2)C2=C(N=NC2)NC2=C3C(=O)CC(C)(C)C2)c1 [US20250313563, Compound 918276]",> 7.00,> 7.00
"CCC1(c2cccc(N(C)c3ncccn3)c2)C2=C(CC(C)(C)NC2=O)NC2N=NC(C(F)(F)F)=C21 (centres undefined) [US20250313563, Compound 948176]",> 7.00,> 7.00
"CCC1(c2cccc(N3CCCC3)c2)C2=C(CC(C)(C)CC2=O)NC2N=NC(C)=C21 (centres undefined) [US20250313563, Compound 874314]",> 7.00,> 7.00
"CCC1(c2cccc(N(C)c3nccn3C)c2)C2=CN=NC2NC2=C1C(=O)CC(C)(C)C2 (centres undefined) [US20250313563, Compound 885402]",6.00 to 7.00,5.30 to 6.00
"CC1(C)CC(=O)C2=C(C1)NC1=C(CN=N1)C21COC2(CN(C(=O)c3ccccc3F)C2)C1 (centres undefined) [US20250313563, Compound 947289]",> 7.00,> 7.00
"CC(C)(C)CC1N=NC2=C1[C@](C)(c1ccccc1)C1=C(CC(C)(C)NC1=O)N2 (some centres undefined) [US20250313563, Compound 114531]",< 5.30,5.30 to 6.00
"CC[C@@]1(c2cccc(N3CCCCC3)c2)C2=C(CC(C)(C)CC2=O)NC2N=NC(C(F)(F)F)=C21 (some centres undefined) [US20250313563, Compound 816799]",6.00 to 7.00,5.30 to 6.00
"CC[C@@]1(c2cccc(-c3c([N+](=O)O)c(C)nn3C)c2)C2=CN=NC2NC2=C1C(=O)NC(C)(C)C2 (some centres undefined) [US20250313563, Compound 952209]",> 7.00,> 7.00
"CC[C@H]1C[C@]2(CO1)C1=C(N=NC1)NC1=C2C(=O)CC(C)(C)C1 [US20250313563, Compound 913214]",6.00 to 7.00,5.30 to 6.00
"CCC1(c2cccc(Cc3ncccc3C(F)(F)F)c2)C2=CN=NC2NC2=C1C(=O)CC(C)(C)C2 (centres undefined) [US20250313563, Compound 947548]",6.00 to 7.00,6.00 to 7.00
"CC[C@]1(c2cccc(-c3c(Cl)cncc3Cl)c2)C2=CN=NC2NC2=C1C(=O)NC(C)(C)C2 (some centres undefined) [US20250313563, Compound 948824]",5.30 to 6.00,< 5.30
"CC[C@@]1(c2cccc(-c3ccnc4cc(F)cnc34)c2)C2=CN=NC2NC2=C1C(=O)NC(C)(C)C2 (some centres undefined) [US20250313563, Compound 952758]",> 7.00,6.00 to 7.00
"CCC1(c2cccc(-c3ccnc(C)c3F)c2)C2=C(CC(C)(C)NC2=O)NC2N=NC(C(F)(F)F)=C21 (centres undefined) [US20250313563, Compound 948297]",> 7.00,> 7.00
"CCC1(c2cccc(-c3cnnc(C)c3)c2)C2=CN=NC2NC2=C1C(=O)NC(C)(C)C2 (centres undefined) [US20250313563, Compound 943496]",> 7.00,5.30 to 6.00
"CC[C@@]1(c2cccc(S(=O)(=O)C3CC3)c2)C2=CN=NC2NC2=C1C(=O)N(C)C(C)(C)C2 (some centres undefined) [US20250313563, Compound 949177]",> 7.00 and 6.00 to 7.00,> 7.00 and 5.30 to 6.00
"CCC1(c2cccc(C(F)(F)F)c2)C2=CN=NC2NC2=C1C(=O)CC(C)C2 (centres undefined) [US20250313563, Compound 801397]",> 7.00,6.00 to 7.00
"CC[C@@]1(c2cccc(C3=C4CC=C(C)N=C4N=CC3)c2)C2=CN=NC2NC2=C1C(=O)NC(C)(C)C2 (some centres undefined) [US20250313563, Compound 948143]",> 7.00,6.00 to 7.00
"CC1(C)CC(=O)C2=C(C1)NC1=C(CN=N1)[C@]21CCN(S(=O)(=O)c2cccc(F)c2)C1 [US20250313563, Compound 951861]",6.00 to 7.00,6.00 to 7.00
"CCC1(c2cccc(-c3cn(C)nc3C)c2)C2=C(CC(C)(C)NC2=O)NC2N=NC(C(F)F)=C21 (centres undefined) [US20250313563, Compound 949170]",> 7.00,> 7.00
"CC1(C)CC(=O)C2=C(C1)NC1=C(CN=N1)[C@@]2(C)c1cc(C(F)(F)F)ccc1F [US20250313563, Compound 816797]",5.30 to 6.00,< 5.30
"COc1cccc(S(=O)(=O)N2CC[C@@]3(C2)C2=C(N=NC2)NC2=C3C(=O)CC(C)(C)C2)c1 [US20250313563, Compound 943486]",> 7.00,> 7.00
"CC1CC(C(=O)N2CC3(C2)CC2(CO3)C3=C(N=NC3)NC3=C2C(=O)CC(C)(C)C3)C1 (centres undefined) [US20250313563, Compound 947266]",> 7.00,> 7.00
"CC[C@]1(c2cccc([C@H]3CCOC3)c2)C2=CN=NC2NC2=C1C(=O)CC(C)(C)C2 (some centres undefined) [US20250313563, Compound 889556]",> 7.00,> 7.00
"CCc1cc(-c2cccc([C@]3(CC)C4=CN=NC4NC4=C3C(=O)NC(C)(C)C4)c2)n(C)n1 (some centres undefined) [US20250313563, Compound 952561]",6.00 to 7.00,6.00 to 7.00
"CCn1nccc1-c1cccc([C@]2(CC)C3=CN=NC3NC3=C2C(=O)CC(C)(C)C3)c1 (some centres undefined) [US20250313563, Compound 946089]",> 7.00,> 7.00 and 6.00 to 7.00
"CCC1(c2cccc(-c3ccnn3C(C)C)c2)C2=CN=NC2NC2=C1C(=O)CC(C)(C)C2 (centres undefined) [US20250313563, Compound 929399]",> 7.00,> 7.00

SMILES,pIC50 [1],pIC50 [2]
"CCC1(c2ccccc2)C2=C(CC(C)(C)CC2=O)NC2N=NC(C(F)(F)F)=C21 (centres undefined) [US20250313563, Compound 792343]",> 7.00,> 7.00
"CC1(C)CC(=O)C2=C(C1)NC1=C(CN=N1)[C@@]21CCCC(C)(C)C1 [US20250313563, Compound 883846]",6.00 to 7.00,5.30 to 6.00
"CC[C@H]1CCN1c1cccc([C@]2(CC)C3=CN=NC3NC3=C2C(=O)CC(C)(C)C3)c1 (some centres undefined) [US20250313563, Compound 911972]",5.30 to 6.00,< 5.30
"CCC1(c2cccc(-n3ccnc3)c2)C2=CN=NC2NC2=C1C(=O)CC(C)(C)C2 (centres undefined) [US20250313563, Compound 854926]",> 7.00,6.00 to 7.00
"CC[C@]1(c2cccc(-c3cc(C)nc(C)c3)c2)C2=CN=NC2NC2=C1C(=O)CC(C)(C)C2 (some centres undefined) [US20250313563, Compound 913222]",> 7.00,6.00 to 7.00
"CC(C)(C)CC1=C2C(N=N1)NC1=C(C(=O)CC(C)(C)C1)[C@@]21CCc2cccc(F)c21 (some centres undefined) [US20250313563, Compound 801352]",6.00 to 7.00,> 7.00
"CC[C@]1(c2ccccc2)C2=CN=NC2NC2=C1C(=O)C[C@]1(CCNC1=O)C2 (some centres undefined) [US20250313563, Compound 950161]",5.30 to 6.00,< 5.30
"CCC1(c2cccc(C(F)(F)F)c2)C2=C(N=NC2)NC2=C1C(=O)NC2(C)C (centres undefined) [US20250313563, Compound 912104]",> 7.00,6.00 to 7.00
"COc1cccc(S(=O)(=O)N2CC[C@]3(C2)C2=C(N=NC2)NC2=C3C(=O)CC(C)(C)C2)c1 [US20250313563, Compound 951790]",> 7.00,> 7.00
"CC[C@@]1(c2cccc(-c3cc(C)nc4c3cnn4C)c2)C2=CN=NC2NC2=C1C(=O)NC(C)(C)C2 (some centres undefined) [US20250313563, Compound 952563]",5.30 to 6.00,< 5.30
"CC[C@]1(c2cccc(-c3ccnc(C)c3)c2)C2=CN=NC2NC2=C1C(=O)NC1(CCC1)C2 (some centres undefined) [US20250313563, Compound 949517]",5.30 to 6.00,< 5.30
"CC[C@]1(c2cc(-c3cnn(C)c3)ccc2F)C2=CN=NC2NC2=C1C(=O)CC(C)(C)C2 (some centres undefined) [US20250313563, Compound 909220]",> 7.00,6.00 to 7.00
"CC[C@]1(c2cccc(-c3cn(C)nc3C)c2)C2=CN=NC2NC2=C1C(=O)NC(C)(C)C2 (some centres undefined) [US20250313563, Compound 945480]",5.30 to 6.00,< 5.30
"CCC1(c2cccc(-c3cnn(C4CC4)c3)c2)C2=C(CC(C)(C)CC2=O)NC2N=NC(C)=C21 (centres undefined) [US20250313563, Compound 883997]",> 7.00,6.00 to 7.00
"CC[C@]1(c2cccc(-c3ccnc4ccc(Cl)cc34)c2)C2=CN=NC2NC2=C1C(=O)NC(C)(C)C2 (some centres undefined) [US20250313563, Compound 948530]",6.00 to 7.00,5.30 to 6.00
"CC[C@]1(c2cccc(-c3cnn4c3CCCC4)c2)C2=C(CC(C)(C)NC2=O)NC2N=NC(C(F)(F)F)=C21 (some centres undefined) [US20250313563, Compound 948772]",6.00 to 7.00,6.00 to 7.00
"C[C@@H]1COCC[C@@]12C1=CN=NC1NC1=C2C(=O)CC(C)(C)C1 (some centres undefined) [US20250313563, Compound 924310]",< 5.30,< 5.30
"CCC1(c2cccc(-c3cncn3C)c2)C2=C(CC(C)(C)NC2=O)NC2N=NC(C)=C21 (centres undefined) [US20250313563, Compound 947565]",> 7.00,> 7.00
"CC[C@@]1(c2cccc(-c3cc[n+]([O-])cc3[S+](C)[O-])c2)C2=CN=NC2NC2=C1C(=O)CC(C)(C)C2 (some centres undefined) [US20250313563, Compound 947570]",6.00 to 7.00,5.30 to 6.00
"CC[C@]1(c2cccc(-c3ccnc(C)c3)c2)C2=CN=NC2NC2=C1C(=O)N[C@]1(CCCOC1)C2 (some centres undefined) [US20250313563, Compound 948146]",5.30 to 6.00,< 5.30
"CC[C@@]1(c2cccc(-c3ccnc(C)c3)c2)C2=CN=NC2NC2=C1C(=O)[C@H](F)C(C)(C)C2 (some centres undefined) [US20250313563, Compound 945476]",> 7.00 and 6.00 to 7.00,6.00 to 7.00 and < 5.30
"CC[C@@]1(c2ccccc2)C2=C(N=NC2)NC2=C1C(=O)[C@@H]1CC[C@H]2C1 [US20250313563, Compound 791269]",6.00 to 7.00,6.00 to 7.00
"CC[C@@]1(c2cccc(-c3ccnc(C)c3)c2)C2=C(CC(C)(C)NC2=O)NC2N=NC(Cl)=C21 (some centres undefined) [US20250313563, Compound 949422]",> 7.00 and 6.00 to 7.00,> 7.00 and 5.30 to 6.00
"CC[C@@]1(c2cccc(C(F)F)c2)C2=CN=NC2NC2=C1C(=O)NC(C)(C)C2 (some centres undefined) [US20250313563, Compound 949006]",> 7.00 and 6.00 to 7.00,6.00 to 7.00 and < 5.30
"CC1(C)CC(=O)C2=C(C1)NC1=C(CN=N1)C21CN(CCc2ccccc2)C1 [US20250313563, Compound 929441]",< 5.30,< 5.30
"CC1(C)CC(=O)C2=C(C1)NC1=C(CN=N1)C21CCN(c2ccncn2)CC1 [US20250313563, Compound 874529]",6.00 to 7.00,5.30 to 6.00
